± gives the expanded uncertainty stated by the source.
How the values were obtained:
[1] = Molar enthalpy of transition or fusion; settings: DSC
[2] = DTA

| SMILES | Molar enthalpy of transition or fusion ([1]; Crystal) | Triple point temperature ([2]; Crystal) | Molar enthalpy of transition or fusion ([1]; Crystal 1) | Molar enthalpy of transition or fusion ([1]; Crystal 2) | Triple point temperature ([2]; Crystal 1) | Triple point temperature ([2]; Crystal 2) |
| --- | --- | --- | --- | --- | --- | --- |
| CNC(=O)[C@H](CC(C)C)NC(C)=O [(S)-2-acetamido-N,4-dimethylpentanamide] | 5.54 ± 0.127 kcal/mol | 438.2 ± 0.39 K |  |  |  |  |
| CCC(NC(C)=O)C(=O)NC (stereo unspecified) [2-acetamido-N-methylbutanamide] | 5.91 ± 0.134 kcal/mol | 434.83 ± 0.4 K |  |  |  |  |
| CCCC(NC(C)=O)C(=O)NC (racemic) [N-acetyl-N'-methyl-DL-norvalinamide] | 6.27 ± 0.143 kcal/mol | 432.29 ± 0.39 K |  |  |  |  |
| CNC(=O)[C@@H]1CCCN1C(C)=O [(2S)-1-acetyl-N-methyl-2-pyrrolidinecarboxamide] | 5.96 ± 0.134 kcal/mol | 375.85 ± 0.39 K |  |  |  |  |
| CNC(=O)C1CCCN1C(C)=O (stereo unspecified) [1-acetyl-N-methylprolinamide] | 6.23 ± 0.139 kcal/mol | 378.12 ± 0.39 K |  |  |  |  |
| CCCCC(NC(C)=O)C(=O)NC (stereo unspecified) [2-acetamido-N-methylhexanamide] | 8.21 ± 0.177 kcal/mol | 444 ± 0.39 K |  |  |  |  |
| CNC(=O)[C@H](C)NC(C)=O [(S)-2-acetamido-N-methylpropanamide] |  |  | 5.94 ± 0.134 kcal/mol | 1.34 ± 0.0454 kcal/mol | 454.8 ± 0.39 K | 395.07 ± 0.41 K |
| CC[C@H](C)[C@H](NC(C)=O)C(=O)NC [(2S,3S)-2-acetamido-N,3-dimethylpentanamide] | 9.11 ± 0.21 kcal/mol | 525.72 ± 0.39 K |  |  |  |  |
| CNC(=O)CNC(C)=O [2-acetamido-N-methylacetamide] | 5.65 ± 0.129 kcal/mol | 430.73 ± 0.39 K |  |  |  |  |
| CC[C@H](C)[C@H](NC(C)=O)C(=O)NC (racemic) [N-acetyl-N'-methyl-DL-isoleucinamide] | 6.48 ± 0.143 kcal/mol | 482.02 ± 0.39 K |  |  |  |  |
| CNC(=O)C(C)NC(C)=O (stereo unspecified) [2-acetamido-N-methylpropanamide] |  |  | 3.8 ± 0.115 kcal/mol | 1.84 ± 0.0765 kcal/mol | 411.9 ± 2 K | 368.43 ± 0.39 K |
